Data as given in ChEMBL document CHEMBL3785036 (J Pharm Sci, 1974).

Assay: Drug excretion in human subject slow inactivator assessed as sum of isoniazid plus hydrazones, acetylisoniazid, isonicotinic acid and isonicotinuric acid level in urine at 681 mg, iv infused at constant rate 5.4 min measured 524 mins after start of drug injection by colorimetry
Type: ADME, organism-based
Conditions: in vivo

Drug excretion: 11.32 mg
SMILES: NNC(=O)c1ccncc1 [ISONIAZID]
